Measurements published in US20230183218A1, “CONDENSED SUBSTITUTED HYDROPYRROLES AS ANTAGONISTS OF THE MUSCARINIC ACETYLCHOLINE RECEPTOR M4” (Vanderbilt University, priority 2020, published 2023).

Assays:
Human M4 = molecular target: T1, Human M4 (Homo sapiens, UniProt P08173); assay: mAChR M4 cell-based functional assay (calcium flux, antagonist mode vs EC80 acetylcholine), human M4/Gqi5/CHO-K1 cells; conditions: for remaining activity at 30 µM: CHO-K1, read-out: Human M4 Emin (%); for IC50: decrease of response elicited by EC80 acetylcholine, human M4/Gqi5 CHO-K1 cells
T1 construct: expressed in transfected cells; host or cells: CHO-K1 (ATCC), stably co-expressing chimeric G protein Gqi5
T1 sequence (P08173 1-479): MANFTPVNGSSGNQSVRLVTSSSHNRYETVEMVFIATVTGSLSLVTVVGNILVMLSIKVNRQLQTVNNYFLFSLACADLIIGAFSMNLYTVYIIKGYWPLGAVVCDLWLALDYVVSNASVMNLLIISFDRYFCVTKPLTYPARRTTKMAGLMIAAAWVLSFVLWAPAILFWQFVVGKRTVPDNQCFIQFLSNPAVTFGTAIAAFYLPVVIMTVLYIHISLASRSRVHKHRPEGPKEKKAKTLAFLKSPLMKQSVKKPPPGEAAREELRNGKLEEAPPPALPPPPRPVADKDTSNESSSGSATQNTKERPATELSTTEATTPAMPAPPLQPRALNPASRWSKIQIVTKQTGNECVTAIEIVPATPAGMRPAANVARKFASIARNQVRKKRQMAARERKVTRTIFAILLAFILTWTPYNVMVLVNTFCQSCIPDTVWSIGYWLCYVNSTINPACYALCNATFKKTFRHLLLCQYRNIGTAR
Method in brief: (§1)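 CHO-K1 cells stably expressing human or rat M4 with Gqi5, Fluo-4 loaded; calcium measured by fluorescence ratio on FDSS. Compound added, then EC20 acetylcholine at 143 s and EC80 at 268 s; IC50 from decrease of EC80 response, four-parameter logistic fit.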

Rat M4 = molecular target: T2, Rat M4 (Rattus norvegicus, UniProt P08485); assay: mAChR M4 cell-based functional assay (calcium flux, antagonist mode vs EC80 acetylcholine), rat M4/Gqi5/CHO-K1 cells; conditions: for remaining activity at 30 µM: CHO-K1, read-out: Rat M4 Emin (%); for IC50: decrease of response elicited by EC80 acetylcholine, rat M4/Gqi5 CHO-K1 cells
T2 construct: expressed in transfected cells; host or cells: CHO-K1 (ATCC), stably co-expressing chimeric G protein Gqi5
T2 sequence (P08485 1-478): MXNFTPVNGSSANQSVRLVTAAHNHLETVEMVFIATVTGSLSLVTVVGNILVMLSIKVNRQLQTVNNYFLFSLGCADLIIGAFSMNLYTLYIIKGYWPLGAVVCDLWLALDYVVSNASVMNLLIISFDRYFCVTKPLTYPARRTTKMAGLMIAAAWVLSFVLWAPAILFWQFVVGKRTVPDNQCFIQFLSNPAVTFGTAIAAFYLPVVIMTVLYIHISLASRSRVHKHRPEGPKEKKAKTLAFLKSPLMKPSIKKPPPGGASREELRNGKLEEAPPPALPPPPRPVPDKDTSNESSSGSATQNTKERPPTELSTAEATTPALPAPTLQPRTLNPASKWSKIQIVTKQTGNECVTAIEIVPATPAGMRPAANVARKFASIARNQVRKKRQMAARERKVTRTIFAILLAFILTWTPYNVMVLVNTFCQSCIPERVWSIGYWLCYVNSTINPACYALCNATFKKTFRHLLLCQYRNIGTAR
Method in brief: as §1

[1] = % ACh maximum at 30 μM, human M4

SMILES	remaining activity at 30 µM (Human M4; [1]) [%]	IC50 (Human M4) [nM]	remaining activity at 30 µM (Rat M4; % ACh maximum at 30 μM, rat M4) [%]	IC50 (Rat M4) [nM]	Human M4 Emin (%) (Human M4; [1])	Rat M4 Emin (%) (Rat M4; % ACh maximum at 30 μM, rat M4)
Cc1cc2c(cc1CN1C[C@H]3C[C@H](Nc4ccc(S(=O)(=O)C5CCCCC5)nn4)C[C@H]3C1)OCO2 [compound 44, (3aR,5s,6aS)-N-(6-(cyclohexylsulfonyl)pyridazin-3-yl)-2-((6-methylbenzo[d][1,3]dioxol-5-yl)methyl)octahydrocyclopenta[c]pyrrol-5-amine]	3	720	6	2050	–	–
O=S(=O)(c1ccc(N[C@H]2C[C@@H]3CN(CC4(O)CCOCC4)C[C@@H]3C2)nn1)C1CCCCC1 [compound 46, 4-(((3aR,5s,6aS)-5-((6-(cyclohexylsulfonyl)pyridazin-3-yl)amino)hexahydrocyclopenta[c]pyrrol-2(1H)-yl)methyl)tetrahydro-2H-pyran-4-ol]	9	1230	27	> 10000	–	–
Cc1cc(CN2C[C@H]3C[C@H](Nc4ccc(S(=O)(=O)c5ccccc5)nn4)C[C@H]3C2)ccc1F [compound 31, (3aR,5s,6aS)-2-(4-fluoro-3-methylbenzyl)-N-(6-(phenylsulfonyl)pyridazin-3-yl)octahydrocyclopenta[c]pyrrol-5-amine]	4	518	3	1160	–	–
CC1(C)C(=O)N(C2CC2)c2nnc(N[C@H]3C[C@@H]4CN(CC5CCOCC5)C[C@@H]4C3)cc21 [compound 70, 7-cyclopropyl-5,5-dimethyl-3-(((3aR,5s,6aS)-2-((tetrahydro-2H-pyran-4-yl)methyl)octahydrocyclopenta[c]pyrrol-5-yl)amino)-5,7-dihydro-6H-pyrrolo [2,3-c]pyridazin-6-one]	4	12.8	13	3970	–	–
CC1(C)CC(N2C[C@H]3C[C@H](Nc4ccc(-c5ccccc5F)nn4)C[C@H]3C2)CCO1 (stereo partly drawn) [compound 52, (3aR,5s,6aS)-2-(2,2-dimethyltetrahydro-2H-pyran-4-yl)-N-(6-(2-fluorophenyl)pyridazin-3-yl)octahydrocyclopenta[c]pyrrol-5-amine]	3	12.1	6	776	–	–
CC1(C)CC(N2C[C@H]3C[C@H](Nc4ccc(S(=O)(=O)C5CCCCC5)nn4)C[C@H]3C2)CCO1 (stereo partly drawn) [compound 66, (3aR,5s,6aS)-N-(6-(cyclohexylsulfonyl)pyridazin-3-yl)-2-(2,2-dimethyltetrahydro-2H-pyran-4-yl)octahydrocyclopenta[c]pyrrol-5-amine]	–	–	–	460	5	7
[O-][S+](c1ccccc1)c1ccc(N[C@H]2C[C@@H]3CN(CC4CCOCC4)C[C@@H]3C2)nn1 (stereo partly drawn) [compound 28, (3aR,5s,6aS)-N-(6-(phenylsulfinyl)pyridazin-3-yl)-2-((tetrahydro-2H-pyran-4-yl)methyl)octahydrocyclopenta[c]pyrrol-5-amine]	5	57.2	8	113	–	–
O=S(=O)(c1ccc(N[C@H]2C[C@@H]3CN(Cc4ccccn4)C[C@@H]3C2)nn1)C1CCCCC1 [compound 33, (3aR,5s,6aS)-N-(6-(cyclohexylsulfonyl)pyridazin-3-yl)-2-(pyridin-2-ylmethyl)octahydrocyclopenta[c]pyrrol-5-amine]	5	105	14	4460	–	–
CC1(C)CC(N2C[C@H]3C[C@H](Nc4ccc(N5CCC(F)(F)CC5)nn4)C[C@H]3C2)CCO1 (stereo partly drawn) [compound 58, (3aR,5s,6aS)-N-(6-(4,4-difluoropiperidin-1-yl)pyridazin-3-yl)-2-(2,2-dimethyltetrahydro-2H-pyran-4-yl)octahydrocyclopenta[c]pyrrol-5-amine]	3	29.8	6	506	–	–
CC(C)(C)CCN1C[C@H]2C[C@H](Nc3ccc(S(=O)(=O)C4CCCCC4)nn3)C[C@H]2C1 [compound 49, (3aR,5s,6aS)-N-(6-(cyclohexylsulfonyl)pyridazin-3-yl)-2-(3,3-dimethylbutyl)octahydrocyclopenta[c]pyrrol-5-amine]	3	5.75	4	63.8	–	–
O=S(=O)(c1ccc(N[C@H]2C[C@@H]3CN(Cc4ccc5c(c4)OCO5)C[C@@H]3C2)nn1)C1CCCCC1 [compound 37, (3aR,5s,6aS)-2-(benzo[d][1,3]dioxol-5-ylmethyl)-N-(6-(cyclohexylsulfonyl)pyridazin-3-yl)octahydrocyclopenta[c]pyrrol-5-amine]	4	3.84	4	160	–	–
CC1(C)CC(N2C[C@H]3C[C@H](Nc4ccc(-c5cc(F)ccc5F)nn4)C[C@H]3C2)CCO1 (stereo partly drawn) [compound 55, (3aR,5s,6aS)-N-(6-(2,5-difluorophenyl)pyridazin-3-yl)-2-(2,2-dimethyltetrahydro-2H-pyran-4-yl)octahydrocyclopenta[c]pyrrol-5-amine]	3	13.5	5	425	–	–
CC(C)(O)CN1C[C@H]2C[C@H](Nc3ccc(-c4cc(F)ccc4Cl)nn3)C[C@H]2C1 [compound 73, 1-((3aR,5s,6aS)-5-((6-(2-Chloro-5-fluorophenyl)pyridazin-3-yl)amino)hexahydrocyclopenta[c]pyrrol-2(1H)-yl)-2-methylpropan-2-ol]	3	13.5	8	1360	–	–
O=S(=O)(c1ccccc1)c1ccc(N[C@H]2C[C@@H]3CN(Cc4ncccc4C(F)(F)F)C[C@@H]3C2)nn1 [compound 41, (3aR,5s,6aS)-N-(6-(phenylsulfonyl)pyridazin-3-yl)-2-((3-(trifluoromethyl)pyridin-2-yl)methyl)octahydrocyclopenta[c]pyrrol-5-amine]	6	742	20	5780	–	–
CC(=O)Nc1ccc(-c2ccc(N[C@H]3C[C@@H]4CN(C5CCOC(C)(C)C5)C[C@@H]4C3)nn2)cc1 (stereo partly drawn) [compound 20, N-(4-(6-(((3aR,5s,6aS)-2-(2,2-dimethyltetrahydro-2H-pyran-4-yl)octahydrocyclopenta[c]pyrrol-5-yl)amino)pyridazin-3-yl)phenyl)acetamide]	3	18.7	4	129	–	–
O=C(c1ccc(N[C@H]2C[C@@H]3CN(CC4CCOCC4)C[C@@H]3C2)nn1)N1CCCCC1 [compound 5, piperidin-1-yl(6-(((3aR,5s,6aS)-2-((tetrahydro-2H-pyran-4-yl)methyl)octahydrocyclopenta[c]pyrrol-5-yl)amino)pyridazin-3-yl)methanone]	14	5.45	14	> 10000	–	–
Cc1cc2c(cc1CN1C[C@H]3C[C@H](Nc4ccc(S(=O)(=O)c5ccccc5)nn4)C[C@H]3C1)OCO2 [compound 42, (3aR,5s,6aS)-2-((6-methylbenzo[d][1,3]dioxol-5-yl)methyl)-N-(6-(phenylsulfonyl)pyridazin-3-yl)octahydrocyclopenta[c]pyrrol-5-amine]	3	1000	14	3110	–	–
O=C(Nc1ccccc1F)c1ccc(N[C@H]2C[C@@H]3CN(CC4CCOCC4)C[C@@H]3C2)nn1 [compound 8, N-(2-fluorophenyl)-6-(((3aR,5s,6aS)-2-((tetrahydro-2H-pyran-4-yl)methyl)octahydrocyclopenta[c]pyrrol-5-yl)amino)pyridazine-3-carboxamide]	4	355	25	> 10000	–	–
